Source: US12070445B2, “System and assay for monitoring production/release of membrane-lytic toxins in bacteria and compounds for modulating same” (priority 2021, dated 2024)
“Also recorded” adds a separate entry of the source.

Tested on: WT S. aureus (RN6390b)
Assay: Microtiter plate (96-well) vesicle lysis assay with WT S. aureus
Assay type: cell-based
Conditions: 100 nM 1, 10 μM 5, 20 μM 6, 10 μM AIP
Protocol: Compound handling and preparation. OdDHL and BHL (Hodgkinson et al., 2011), S. aureus AIP and peptide derivatives 1-5 (Tal-Gan et al., 2013, Tal-Gan et al., 2016, Vasquez and Blackwell, 2019), and compounds 7-9 (Welsh and Blackwell, 2016a, Boursier et al., 2018, Manson et al., 2020) were synthesized using previously described methods. PQS and compound 6 were purchased from Millipore Sigma and AK Scientific respectively. Compounds were stored dry at −20° C. until needed and then dissolved in DMSO. DMSO stock solutions were prepared at concentrations that varied with compound potency and apparent solubility. Final in-well compound concentrations for 96-well vesicle lysis assays, unless noted otherwise, were: 10 μM for AIP, OdDHL, and PQS; 1 mM for BHL; 100 nM for 1-4; 10 μM for 5; 20 μM for 6; 100 μM for 7 and 8; and 200 μM for 9.
Production of phospholipid vesicles with encapsulated calcein. Large unilamellar vesicles (LUVs) were produced by adapting a freeze-thaw and vesicle extrusion procedure (Mayer et al., 1986). Briefly, stock solutions of phospholipids (DOPC, DPPC, DPPE, or cholesterol) in chloroform were mixed to the desired lipid compositions (70 mol % DOPC/30 mol % cholesterol for S. aureus vesicles or 68 mol % DPPC, 30 mol % cholesterol, 2 mol % DPPE for P. aeruginosa vesicles), and the chloroform was removed using an N2 stream or rotary evaporation followed by drying for at least one hour under vacuum. Self-quenching solutions of calcein were prepared by combining calcein and PBS or a specially prepared calcein buffer (1 mM EDTA, 10 mM Trisbase, and 100 mM NaCl; pH 8) to a calcein concentration of […]. The resulting solutions were titrated with 10 M aqueous NaOH until all calcein was dissolved and the solution reached pH 7.4 or pH 8 for PBS and the calcein buffer, respectively. The resulting calcein solutions were added to the dried phospholipid films (PBS for S. aureus formulations and the calcein buffer for the P. aeruginosa formulations) for a final lipid concentration of 5 mg/mL. The resulting lipid solutions were vortexed vigorously and briefly sonicated in a bath sonicator to form a turbid vesicle suspension. The vesicle suspensions were then freeze-thawed five times by alternately immersing them into an iPrOH/dry ice bath and a warm water bath (˜60° C.). Vesicles prepared for continuous time-course experiments were passed at least 5 times through a 100 nm polycarbonate filter using a Mini-prep extruder. Vesicles prepared for the high-throughput screen were passed through the filter 3 times. The resulting vesicles were then separated from external, unloaded calcein using a hand-packed Sephadex-G50 size exclusion chromatography column. The concentration of phospholipid in the solution was quantified using ^31P NMR (per the above protocol), and the phospholipid concentration was adjusted to 2 mM for unsaturated lipid solutions and 1 mM for saturated lipid solutions in their respective buffers. The resulting vesicles were characterized by dynamic light scattering and found to have a hydrodynamic diameter of ˜150 nm (FIGS. 3A-3C), which agrees with previous reports describing vesicle production using a similar method (Lapinski et al., 2007).
Microtiter plate vesicle lysis assays. Portions of media (2 or 10 mL) were inoculated with individual bacterial colonies and allowed to shake overnight. From these overnight cultures, subcultures were prepared by diluting the cultures 1:50 (v/v) in fresh BHI for S. aureus or 1:100 (v/v) in fresh LB for P. aeruginosa. An aliquot of each subculture (178 μL) was added to 20 μL of vesicle suspension and 2 μL of compound solution (dissolved in DMSO at 100× working concentration) in a clear-bottomed, black 96-well microtiter plate (Corning 3904). For controls, DMSO (vehicle) or Triton X-100 (1% final concentration) was substituted for compound. […]

SMILES: CC(C)c1ccc(S(=O)(=O)c2nnn3c2nc(O)c2ccccc23)cc1 [Compound 6, savirin]
- effect on vesicle lysis (calcein fluorescence over 12 hr): wholly abrogated vesicle lysis; also recorded: repress vesicle lysis
